From patent US20170166598A1, “HETEROARYL COMPOUNDS FOR KINASE INHIBITION” (ARIAD PHARMACEUTICALS, INC., priority 2014, published 2017)

What was measured:
Assay type in all cases: cell-based
[1] = molecular target: T1, human EGFR exon 20 insertion NPG (H773_V774insNPG) (Homo sapiens, UniProt P00533, INS772GNP); test: Ba/F3-EGFR-Exon20-NPG cell anti-proliferative assay (CellTiter 96 MTS, 72 h); conditions: Ba/F3-EGFR-Exon20-NPG cells
T1 construct: expressed in transfected cells; host or cells: Ba/F3 (murine pro-B) cells transduced with lentivirus from pLVX-IRES puro
T1 sequence (P00533 with tags, fused parts or gaps INS772GNP): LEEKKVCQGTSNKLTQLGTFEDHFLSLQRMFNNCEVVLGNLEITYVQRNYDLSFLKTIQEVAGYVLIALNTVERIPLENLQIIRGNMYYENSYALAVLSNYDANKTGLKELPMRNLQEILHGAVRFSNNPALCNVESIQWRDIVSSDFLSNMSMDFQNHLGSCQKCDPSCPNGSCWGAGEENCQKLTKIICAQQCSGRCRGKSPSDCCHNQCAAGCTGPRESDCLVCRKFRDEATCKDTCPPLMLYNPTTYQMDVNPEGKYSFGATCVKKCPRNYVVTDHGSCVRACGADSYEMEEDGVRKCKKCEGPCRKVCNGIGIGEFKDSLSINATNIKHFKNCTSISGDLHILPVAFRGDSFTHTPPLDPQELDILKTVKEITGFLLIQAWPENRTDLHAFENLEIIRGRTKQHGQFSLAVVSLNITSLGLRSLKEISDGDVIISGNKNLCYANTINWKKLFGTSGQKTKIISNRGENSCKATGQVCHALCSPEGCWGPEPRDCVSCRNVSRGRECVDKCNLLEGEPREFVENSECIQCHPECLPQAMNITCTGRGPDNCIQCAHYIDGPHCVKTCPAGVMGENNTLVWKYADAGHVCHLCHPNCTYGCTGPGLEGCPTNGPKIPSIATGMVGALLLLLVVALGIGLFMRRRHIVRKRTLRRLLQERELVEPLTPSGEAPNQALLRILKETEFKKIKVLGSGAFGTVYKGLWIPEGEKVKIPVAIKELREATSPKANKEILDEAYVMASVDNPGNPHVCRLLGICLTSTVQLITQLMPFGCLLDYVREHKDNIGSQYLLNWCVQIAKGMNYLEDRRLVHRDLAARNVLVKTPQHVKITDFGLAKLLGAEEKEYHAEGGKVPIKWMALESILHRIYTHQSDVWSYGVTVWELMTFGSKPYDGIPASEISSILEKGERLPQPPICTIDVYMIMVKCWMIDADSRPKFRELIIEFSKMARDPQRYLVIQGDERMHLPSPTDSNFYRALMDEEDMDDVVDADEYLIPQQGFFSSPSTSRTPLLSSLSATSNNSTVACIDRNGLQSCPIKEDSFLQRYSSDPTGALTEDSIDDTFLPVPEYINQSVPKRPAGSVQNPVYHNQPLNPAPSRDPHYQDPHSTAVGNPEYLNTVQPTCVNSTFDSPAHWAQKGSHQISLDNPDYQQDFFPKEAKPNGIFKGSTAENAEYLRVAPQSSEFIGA
Procedure, shortened: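 Viable-cell readout used absorbance at 490 nm of MTS-derived formazan, 2 h after reagent addition, following 72 h compound treatment at 37 °C, 5% CO2. Cells: puromycin-selected, IL-3-depleted Ba/F3 expressing EGFR exon 20 ASV or NPG; dosing 4-fold series from 10,000 nM.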

[2] = molecular target: T2, human EGFR exon 20 insertion ASV (V769_D770insASV) (Homo sapiens, UniProt P00533, INS769ASV); test: Ba/F3-EGFR-Exon20-ASV cell anti-proliferative assay (CellTiter 96 MTS, 72 h); conditions: Ba/F3-EGFR-Exon20-ASV cells
T2 construct: expressed in transfected cells; host or cells: Ba/F3 (murine pro-B) cells transduced with lentivirus from pLVX-IRES puro
T2 sequence (P00533 with tags, fused parts or gaps INS769ASV): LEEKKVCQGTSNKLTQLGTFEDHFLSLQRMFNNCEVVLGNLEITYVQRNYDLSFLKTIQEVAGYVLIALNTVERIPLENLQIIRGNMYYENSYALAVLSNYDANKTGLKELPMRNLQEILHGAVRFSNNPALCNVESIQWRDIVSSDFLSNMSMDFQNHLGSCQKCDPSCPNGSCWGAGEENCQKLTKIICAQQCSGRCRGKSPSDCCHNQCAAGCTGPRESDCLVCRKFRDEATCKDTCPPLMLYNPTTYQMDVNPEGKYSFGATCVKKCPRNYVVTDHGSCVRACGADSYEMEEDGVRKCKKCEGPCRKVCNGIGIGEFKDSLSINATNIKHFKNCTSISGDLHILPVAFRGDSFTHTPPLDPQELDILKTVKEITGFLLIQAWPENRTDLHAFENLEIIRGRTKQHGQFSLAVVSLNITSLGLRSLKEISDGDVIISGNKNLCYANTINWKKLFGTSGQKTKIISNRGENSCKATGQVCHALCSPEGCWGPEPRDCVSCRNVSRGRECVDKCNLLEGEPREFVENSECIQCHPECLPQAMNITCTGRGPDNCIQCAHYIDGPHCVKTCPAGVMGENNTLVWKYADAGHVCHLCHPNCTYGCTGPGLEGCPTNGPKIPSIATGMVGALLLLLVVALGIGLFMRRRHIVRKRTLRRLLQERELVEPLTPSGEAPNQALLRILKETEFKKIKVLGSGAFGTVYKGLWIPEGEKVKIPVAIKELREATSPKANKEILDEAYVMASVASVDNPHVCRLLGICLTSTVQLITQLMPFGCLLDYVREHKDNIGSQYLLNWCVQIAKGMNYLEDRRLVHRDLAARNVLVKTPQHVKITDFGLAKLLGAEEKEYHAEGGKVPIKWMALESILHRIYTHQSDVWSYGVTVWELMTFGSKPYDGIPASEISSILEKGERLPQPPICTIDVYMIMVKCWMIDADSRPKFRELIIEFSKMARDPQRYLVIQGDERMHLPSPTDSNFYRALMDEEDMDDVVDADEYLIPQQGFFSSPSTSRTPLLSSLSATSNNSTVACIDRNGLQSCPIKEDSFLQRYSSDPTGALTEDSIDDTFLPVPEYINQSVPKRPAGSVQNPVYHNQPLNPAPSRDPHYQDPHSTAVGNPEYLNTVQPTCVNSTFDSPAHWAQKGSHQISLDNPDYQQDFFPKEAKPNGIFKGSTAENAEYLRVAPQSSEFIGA
Protocol: An expression vector, pLVX-IRES puro (Clontech) coding for human EGFR exon 20 insertions NPG (H773_V774insNPG) or ASV (V769_D770insASV), was transfected into HEK293 cells by the Trans-Lentiviral ORF Packaging System (Thermo Scientific), to produce virus encoding EGFR exon 20 insertions. Ba/F3 (DSMZ) cells maintained in RPMI 1640 medium supplemented with 10% fetal bovine serum, 200 μM L-glutamine/l 200 μg/mL penicillin/200 μg/mL streptomycin (Life Technology) and 10 ng/mL IL-3 (R&D system), were infected by EGFR Exon20 virus and subsequently selected by puromycin (Life Technology) selection and IL-3 depletion. […] The anti-proliferative activity of compounds were determined as follows: BaF3-EGFR-Exon20 cells (NPG or ASV) seeded in 96 well plates (2500 cells/well) were treated with test compound (dissolved in DMSO) at a series of concentrations (4-fold dilution, top concentration: 10,000 nM). The plates were incubated for 72 h in a 37° C. incubator with 5% CO2, and the number of viable cells in each well were measured indirectly by CellTiter 96® Aqueous One Solution Cell Proliferation Assay (Promega) This assay is a colorimetric method for determining the number of viable cells through measurement of their metabolic activity by detection of enzymatic conversion of tetrazolium salts into blue formazan derivatives. Reagent (20 μL) was added into each well, and the plates were returned to the incubator for 2 h. The absorbance in each well was then measured at 490 nm using an Envision plate reader (Perkin Elmer).

[3] = molecular target: T3, human EGFR E746-A750 deletion and T790M Mutation (Homo sapiens, UniProt P00533, DEL746-750/T790M); test: Ba/F3-EGFR-Del/T790M cell anti-proliferative assay (CellTiter 96 MTS, 72 h); conditions: Ba/F3-EGFR-Del/T790M cells
T3 construct: expressed in transfected cells; host or cells: Ba/F3 (murine pro-B) cells transduced with lentivirus from pLVX-IRES puro
T3 sequence (P00533 with tags, fused parts or gaps DEL746-750/T790M): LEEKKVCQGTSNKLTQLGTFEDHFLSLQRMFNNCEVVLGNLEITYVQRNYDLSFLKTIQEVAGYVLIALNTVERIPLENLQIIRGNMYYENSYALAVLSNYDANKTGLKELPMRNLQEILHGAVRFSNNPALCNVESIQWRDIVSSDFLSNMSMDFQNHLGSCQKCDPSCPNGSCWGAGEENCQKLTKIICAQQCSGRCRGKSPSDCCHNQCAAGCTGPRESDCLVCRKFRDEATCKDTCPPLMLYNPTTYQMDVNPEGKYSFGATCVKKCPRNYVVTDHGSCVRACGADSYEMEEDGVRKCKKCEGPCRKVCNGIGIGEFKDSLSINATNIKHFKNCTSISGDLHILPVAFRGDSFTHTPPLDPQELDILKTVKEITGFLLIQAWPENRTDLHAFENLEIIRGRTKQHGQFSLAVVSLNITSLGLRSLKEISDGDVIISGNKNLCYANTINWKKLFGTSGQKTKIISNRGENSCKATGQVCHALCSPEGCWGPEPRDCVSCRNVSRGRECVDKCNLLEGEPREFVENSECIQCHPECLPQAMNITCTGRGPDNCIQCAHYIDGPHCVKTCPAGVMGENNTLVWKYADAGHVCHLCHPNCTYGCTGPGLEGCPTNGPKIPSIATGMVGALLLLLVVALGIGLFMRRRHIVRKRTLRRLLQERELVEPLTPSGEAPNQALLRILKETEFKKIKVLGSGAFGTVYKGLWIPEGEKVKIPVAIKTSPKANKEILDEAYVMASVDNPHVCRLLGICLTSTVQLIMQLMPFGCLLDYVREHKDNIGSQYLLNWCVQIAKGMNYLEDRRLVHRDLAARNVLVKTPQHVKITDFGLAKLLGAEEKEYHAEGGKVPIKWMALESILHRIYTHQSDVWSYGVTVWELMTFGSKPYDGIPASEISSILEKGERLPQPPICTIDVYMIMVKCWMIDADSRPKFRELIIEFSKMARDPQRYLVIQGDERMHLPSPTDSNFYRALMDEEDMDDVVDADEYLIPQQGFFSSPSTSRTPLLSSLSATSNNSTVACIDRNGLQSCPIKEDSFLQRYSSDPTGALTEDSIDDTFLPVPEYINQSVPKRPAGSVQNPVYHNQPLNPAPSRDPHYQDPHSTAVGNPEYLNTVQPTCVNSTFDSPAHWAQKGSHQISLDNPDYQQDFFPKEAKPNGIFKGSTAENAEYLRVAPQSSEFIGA
Procedure, shortened: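 Compound exposure: 72 h, 37 °C, 4-fold series topping at 10,000 nM. Target cells are Ba/F3 transduced with EGFR exon 19 deletion plus T790M, selected by puromycin and IL-3 withdrawal. Viable cell number inferred from MTS metabolic conversion, A490 read 2 h after reagent addition.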

[4] = molecular target: T4, Her2 exon 20 YVMA insertion (A775_G776ins YVMA) (Homo sapiens, UniProt P04626, INS775YVMA); test: Ba/F3-Her2 Exon20 YVMA cell anti-proliferative assay (CellTiter 96 MTS, 72 h); conditions: Ba/F3-Her2 Exon20 YVMA cells
T4 construct: expressed in transfected cells; host or cells: Ba/F3 (murine pro-B) cells transduced with lentivirus from pLVX-IRES puro
T4 sequence (P04626 with tags, fused parts or gaps INS775YVMA): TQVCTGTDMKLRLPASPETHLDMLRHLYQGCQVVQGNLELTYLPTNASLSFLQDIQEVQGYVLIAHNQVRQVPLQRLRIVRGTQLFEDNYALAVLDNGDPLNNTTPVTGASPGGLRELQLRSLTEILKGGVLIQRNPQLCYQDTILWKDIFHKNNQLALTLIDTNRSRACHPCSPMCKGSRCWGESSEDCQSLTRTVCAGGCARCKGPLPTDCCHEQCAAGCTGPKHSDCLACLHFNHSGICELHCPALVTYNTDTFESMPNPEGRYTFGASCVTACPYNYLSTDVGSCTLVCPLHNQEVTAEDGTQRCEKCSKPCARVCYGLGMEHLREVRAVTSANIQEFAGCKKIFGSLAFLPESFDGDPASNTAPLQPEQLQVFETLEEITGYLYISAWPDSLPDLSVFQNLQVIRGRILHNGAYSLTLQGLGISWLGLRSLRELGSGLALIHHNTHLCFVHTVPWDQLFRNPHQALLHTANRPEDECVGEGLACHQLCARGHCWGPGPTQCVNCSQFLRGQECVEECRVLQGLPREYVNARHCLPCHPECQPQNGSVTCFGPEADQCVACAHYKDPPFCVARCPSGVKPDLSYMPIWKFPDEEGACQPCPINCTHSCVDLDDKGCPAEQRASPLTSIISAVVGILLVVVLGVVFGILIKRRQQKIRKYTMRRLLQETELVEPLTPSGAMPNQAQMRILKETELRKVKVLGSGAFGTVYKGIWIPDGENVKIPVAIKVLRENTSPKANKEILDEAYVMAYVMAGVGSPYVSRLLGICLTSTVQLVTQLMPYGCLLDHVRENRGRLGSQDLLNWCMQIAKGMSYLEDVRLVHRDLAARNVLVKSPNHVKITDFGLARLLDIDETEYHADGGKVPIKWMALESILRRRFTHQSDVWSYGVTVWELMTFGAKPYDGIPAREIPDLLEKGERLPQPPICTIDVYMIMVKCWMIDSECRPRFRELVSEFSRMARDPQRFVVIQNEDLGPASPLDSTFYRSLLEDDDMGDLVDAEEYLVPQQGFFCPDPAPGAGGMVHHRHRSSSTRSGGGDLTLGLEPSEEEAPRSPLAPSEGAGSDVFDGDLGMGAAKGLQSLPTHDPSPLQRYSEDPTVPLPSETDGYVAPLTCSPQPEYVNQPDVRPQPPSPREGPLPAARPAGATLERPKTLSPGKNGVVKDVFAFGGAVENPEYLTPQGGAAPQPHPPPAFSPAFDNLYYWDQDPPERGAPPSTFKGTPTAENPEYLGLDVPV
Procedure, shortened: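 Anti-proliferation: compound series (top 10,000 nM, 4-fold steps) was applied to Ba/F3-Her2 Exon20 YVMA cells grown without IL-3 for 72 h. Viability was read colorimetrically (CellTiter 96 Aqueous One, A490, 2 h reagent incubation).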

| Structure (SMILES) | IC50 [1] | IC50 [2] | EGFR exon 19 deletion and exon 20 T790M mutation IC50 [3] | IC50 [4] |
| --- | --- | --- | --- | --- |
| C=CC(=O)Nc1cc(Nc2ncc(/C=C/C#N)c(-c3cn4c5c(cccc35)CCC4)n2)c(OC)cc1N(C)CCN(C)C [Example 42, (E)-N-(5-((5-(2-cyanovinyl)-4-(5,6-dihydro-4H-pyrrolo[3,2,1-ij]quinolin-1-yl)pyrimidin-2-yl)amino)-2-((2-(dimethylamino)ethyl)(methyl)amino)-4-methoxyphenyl)acrylamide] | < 100 nM | < 100 nM | A (IC50 value for the indicated mutant below about 100 nM) | < 100 nM |
| C=CC(=O)Nc1cc(Nc2ncc(/C=C\C#N)c(-c3cn4c5c(cccc35)CCC4)n2)c(OC)cc1N(C)CCN(C)C [Example 43, (Z)-N-(5-((5-(2-cyanovinyl)-4-(5,6-dihydro-4H-pyrrolo[3,2,1-ij]quinolin-1-yl)pyrimidin-2-yl)amino)-2-((2-(dimethylamino)ethyl)(methyl)amino)-4-methoxyphenyl)acrylamide] | < 100 nM | < 100 nM | A (IC50 value for the indicated mutant below about 100 nM) | < 100 nM |
| C=CC(=O)Nc1cc(Nc2ncc(C(=O)OC)c(-c3cn4c5c(cccc35)CCC4)n2)c(OC)cc1N(C)CCN(C)C [Example 44, methyl 2-((5-acrylamido-4-((2-(dimethylamino)ethyl)(methyl)amino)-2-methoxyphenyl)amino)-4-(5,6-dihydro-4H-pyrrolo[3,2,1-ij]quinolin-1-yl)pyrimidin-5-carboxylate] | < 100 nM | < 100 nM | A (IC50 value for the indicated mutant below about 100 nM) | < 100 nM |
| C=CC(=O)Nc1cc(Nc2ncc(C(=O)O)c(-c3cn4c5c(cccc35)CCC4)n2)c(OC)cc1N(C)CCN(C)C [Example 45, 2-((5-acrylamido-4-((2-(dimethylamino)ethyl)(methyl)amino)-2-methoxyphenyl)amino)-4-(5,6-dihydro-4H-pyrrolo[3,2,1-ij]quinolin-1-yl)pyrimidine-5-carboxylic acid] | > 1000 nM | > 1000 nM | D (IC50 value for the indicated mutant greater than about 1 μM) | > 1000 nM |
| C=CC(=O)Nc1cc(Nc2ncc(-c3cnn(C)c3)c(-c3cn4c5c(cccc35)CCC4)n2)c(OC)cc1N(C)CCN(C)C [Example 49, N-(5-((4-(5,6-dihydro-4H-pyrrolo[3,2,1-ij]quinolin-1-yl)-5-(1-methyl-1H-pyrazol-4-yl)pyrimidin-2-yl)amino)-2-((2-(dimethylamino)ethyl)(methyl)amino)-4-methoxyphenyl)acrylamide] | < 100 nM | < 100 nM | A (IC50 value for the indicated mutant below about 100 nM) | < 100 nM |
| C=CC(=O)Nc1cc(Nc2ncc(OCC#N)c(-c3cn4c5c(cccc35)CCC4)n2)c(OC)cc1N(C)CCN(C)C [Example 50, N-(5-((5-(cyanomethoxy)-4-(5,6-dihydro-4H-pyrrolo[3,2,1-ij]quinolin-1-yl)pyrimidin-2-yl)amino)-2-((2-(dimethylamino)ethyl)(methyl)amino)-4-methoxyphenyl)acrylamide] | < 100 nM | < 100 nM | A (IC50 value for the indicated mutant below about 100 nM) | < 100 nM |
| C=CC(=O)Nc1cc(Nc2ncc(OCC(C)O)c(-c3cn4c5c(cccc35)CCC4)n2)c(OC)cc1N(C)CCN(C)C (stereo not shown) [Example 51, N-(5-((4-(5,6-dihydro-4H-pyrrolo[3,2,1-ij]quinolin-1-yl)-5-(2-hydroxypropoxy)pyrimidin-2-yl)amino)-2-((2-(dimethylamino)ethyl)(methyl)amino)-4-methoxyphenyl)acrylamide] | < 100 nM | < 100 nM | A (IC50 value for the indicated mutant below about 100 nM) | 100 to 500 nM |
